Reference: patent US12459916B2, “Substituted indazoles useful for treatment and prevention of allergic and/or inflammatory diseases in animals” (Bayer Pharma Aktiengesellschaft, priority 2016, dated 2025)
Like-named read-outs stand apart in the source and are kept apart here.

How the values were obtained:
[1] = molecular target: canine IRAK4 (Canis lupus familiaris, UniProt A0A8I3S726); test: Canine IRAK4 kinase assay (TR-FRET); format: biochemical
Procedure: The IRAK4-inhibitory activity of the present compounds on canine IRAK4 was measured in the Irak4 TR-FRET assay (TR-FRET=Time Resolved Fluorescence Resonance Energy Transfer) described hereinafter.
Recombinant fusion protein from N-terminal HIS (Poly-histidine) and canine Irak4, expressed in baculovirus-infected insect cells (Hi5, BTI-TN-5B1-4, cell line purchased from Invitrogen, catalogue No. B855-02) and purified via affinity chromatography, was used as enzyme. The substrate used for the kinase reaction was the biotinylated peptide biotin-Ahx-[…]
50 nl of the respective solution were pipetted into a black low-volume 384-well microtitre plate (Greiner Bio-One, Frickenhausen, Germany), 2 μl of a solution of Irak4 in assay buffer [50 mM HEPES pH 7.5, 5 mM MgCl2, 1.0 mM dithiothreitol, 30 μM activated sodium orthovanadate, 0.1% (w/v) of bovine gamma-globulin (BGG) 0.04% (v/v) nonidet-P40 (Sigma)] were added and the mixture was incubated for 15 min to allow prebinding of the substances to the enzyme prior to the kinase reaction. […] The concentration of the Irak4 was adjusted to the respective activity of the enzyme and set such that the assay was carried out in the linear range. Typical concentrations were in the order of about 0.1 nM.
The resulting mixture was incubated at 22° C. for 1 h to allow formation of a complex of the biotinylated phosphorylated substrate and the detection reagents. The amount of the phosphorylated substrate was then evaluated by measuring the resonance energy transfer from europium chelate-labelled anti-mouse-IgG antibody to streptavidin-XL665. […] The IC50 values were calculated by a 4-parameter fit.

[2] = system: secretion of TNF-α in THP-1 cells; test: TNF-α secretion in THP-1 cells; format: cell-based; conditions: Homo sapiens, LPS 0.05 μg/ml, 17 h, read-out: IC50 with respect to the secretion of TNF-α in THP-1 cells
Procedure: This test is suited to test substances for their ability to inhibit secretion of TNF-α (tumour necrosis factor alpha) in THP-1 cells (human monocytic acute leukaemia cell line). TNF-α is a cytokine involved in inflammatory processes. In this test, TNF-α secretion is triggered by incubation with bacterial lipopolysaccharide (LPS).
The cells were incubated at room temperature for 15 min. 2-2.5 μl of 0.1 μg/ml LPS (Sigma, Escherichia coli 055:B5, Cat. No. L5418) dissolved in cell culture medium (final concentration 0.05 μg/ml) were then dispensed into each well. As neutral control, cells were treated with 0.05 μg/ml LPS and 1% DMSO and, as inhibitor control, with 1% DMSO only.
The amount of TNF-α was determined using the TNF-alpha HTRF Detection Kit (Cisbio, Cat. No. 62TNFPEB/C). To this end, 2 μl of the detection solution in each case, consisting of anti-TNF-α-XL665 conjugate and anti-TNF-α-cryptate conjugate dissolved in the reconstitution buffer in accordance with the manufacturer's instructions, were added for the HTRF (Homogeneous Time-Resolved Fluorescence) test. After the addition, the mixture was incubated either at room temperature for 3 h or at 4° C. overnight.
The activity of the substances is expressed as the ratio between neutral and inhibitor control in percent. The IC50 values were calculated using a 4-parameter fit.

[3] = IC50 in the IRAK4 canine kinase assay, values from two experiments, 1 mM ATP
[4] = recombinant canine IRAK4 enzyme, read-out: IC50 for the inhibition of canine IRAK4

Chain of canine IRAK4 (A0A8I3S726 1-460): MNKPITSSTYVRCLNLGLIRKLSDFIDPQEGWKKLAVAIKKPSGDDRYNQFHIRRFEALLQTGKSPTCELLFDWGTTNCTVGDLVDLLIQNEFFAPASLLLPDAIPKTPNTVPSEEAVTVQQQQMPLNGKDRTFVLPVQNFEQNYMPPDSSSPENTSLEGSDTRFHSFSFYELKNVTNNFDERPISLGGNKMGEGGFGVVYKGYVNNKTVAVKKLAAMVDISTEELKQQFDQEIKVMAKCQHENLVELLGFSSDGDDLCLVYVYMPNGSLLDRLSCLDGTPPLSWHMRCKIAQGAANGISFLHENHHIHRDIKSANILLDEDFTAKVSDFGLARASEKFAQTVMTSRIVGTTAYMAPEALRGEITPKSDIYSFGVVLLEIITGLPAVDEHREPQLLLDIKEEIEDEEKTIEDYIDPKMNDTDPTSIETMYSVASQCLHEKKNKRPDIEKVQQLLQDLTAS

Structure (SMILES)	IC50 [1, 3] [nM]	IC50 [1, 4] [nM]	IC50 [2] [nM]
CC(C)(O)CCn1cc2cc(NC(=O)c3cccc(C(F)F)n3)c(C(C)(C)O)cc2n1 [Example 13, 6-(Difluoromethyl)-N-[2-(3-hydroxy-3-methylbutyl)-6-(2-hydroxypropan-2-yl)-2H-indazol-5-yl]pyridine-2-carboxamide]	2.68	2.2	100
Cc1nc(C(=O)Nc2cc3cn(CCC(C)(C)O)nc3cc2C(C)(C)O)ccc1F [Example 19, 5-Fluoro-N-[2-(3-hydroxy-3-methylbutyl)-6-(2-hydroxypropan-2-yl)-2H-indazol-5-yl]-6-methylpyridine-2-carboxamide]	6.75	7.6	100
